We go through 20 compounds from PubChem BioAssay (NCI).

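Following 48 hours of exposure in 96-well plates, responses at five concentrations were used to interpolate endpoints linearly. The concentration for 50% growth inhibition is given as GI50. TGI: total growth inhibition.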

Assay in all cases: NCI tumour cell line growth inhibition, 48 h
In assay [1] the test system is A549 NSCLC.
The subject of assay [2] is CCRF-CEM leukemia.
The test system of assay [3] is HOP-62 NSCLC.
For assay [4], the system named is K-562 leukemia.
The subject of assay [5] is OVCAR-3 ovarian.
In assay [6] the test system is SF-539 CNS.
The test system of assay [7] is SK-OV-3 ovarian.
Assay [8] deals with SW-620 colon.
Assay [9] has as its system TK-10 renal.
The subject of assay [10] is UACC-62 melanoma.

As to `C=C(C)C1CCC2(C(=O)O)CCC3(C)C(CCC4C5(C)CCC(OC(=O)NCc6ccccc6)C(C)(C)C5CCC43C)C12` (configuration not stated), the GI50 was 0.961 µM in assay [1]; 2.36 µM in assay [2]; 3.87 µM in assay [3]; 1.67 µM in assay [4]; 2.04 µM in assay [5]; 41.9 µM in [6]. Also, the GI50 in assay [7] is 27.8 µM; in assay [8], 2.56 µM; in assay [9], 3.76 µM; in assay [10], 1.9 µM. The TGI in assay [1] was greater than 100 µM; in assay [2], greater than 100 µM; in [3], greater than 100 µM; in assay [4] it was greater than 100 µM; in assay [5], 13.9 µM; in assay [6] it was greater than 100 µM. Further, the TGI in [7] is greater than 100 µM; in assay [8], greater than 100 µM; in [9], 58.4 µM; in assay [10], greater than 100 µM.
Regarding `Cc1nc2ccccc2c(=O)n1-c1ccccc1F`, the TGI in assay [1], in [2], in assay [3], in assay [4], in assay [5] and in [6] was greater than 100 µM each time. The TGI in [7], in [8], in assay [9] and in assay [10] was greater than 100 µM in each case.
With `O=C1OC(c2ccco2)=N/C1=C\c1cccc([N+](=O)[O-])c1`, the TGI in assay [1], in assay [2], in [3], in [4], in [5] and in [6] was greater than 100 µM in each case. Besides, the TGI in assay [7], in [8], in [9] and in assay [10] was greater than 100 µM throughout.
As to `N.N.O=C([O-])P(=O)([O-])[O-].[Na+].[Pt+4]`, the GI50 in assay [1], in assay [2], in assay [3], in [4], in [5] and in assay [6] was greater than 100 µM each time. Further, the GI50 in assay [7], in [8], in assay [9] and in assay [10] was greater than 100 µM throughout. For the same compound, the TGI in assay [1], in [2], in [3], in assay [4], in [5] and in assay [6] was greater than 100 µM in each case. In addition, the TGI in [7], in [8], in assay [9] and in assay [10] was greater than 100 µM throughout.
On to `C/C(=N\Nc1ccc(Cl)cn1)c1ccccn1`, for which the GI50 in assay [1] was 0.364 µM; in assay [2], 0.0273 µM; in assay [3], 0.167 µM; in assay [4] it was 0.029 µM; in assay [6] it was 0.229 µM; in assay [7], 0.098 µM. Also, the results for the GI50 in assay [8], in [9] and in assay [10] were 0.0622 µM, 2.06 µM and 0.172 µM, respectively. Moreover, the TGI in assay [1] was greater than 100 µM; in [2], greater than 100 µM; in assay [3] it was greater than 42.1 µM; in assay [4] it was greater than 100 µM; in assay [5] it was 14.9 µM; in [6], 3.49 µM. In addition, the TGI was 26.9 µM in [7], greater than 100 µM in assay [8], 97.7 µM in assay [9] and greater than 100 µM in [10].
`Cc1ccc(C(=O)Nc2ccc(CN3CCN(C)CC3)c(C(F)(F)F)c2)cc1C#Cc1cnc(N)c2ccccc12`: the GI50 in assay [1] was 0.447 µM; in assay [2], 0.622 µM; in assay [3], 0.849 µM; in [4], 0.005 µM; in assay [5], 0.578 µM; in assay [6], 0.729 µM. The GI50 in assay [7] is 0.684 µM; in assay [8] it was 0.41 µM; in assay [9], 0.562 µM; in [10], 0.565 µM. In addition, the TGI came to 1.26 µM in assay [1]; 3.04 µM in assay [2]; 2.13 µM in assay [3]; 0.61 µM in assay [4]; 1.35 µM in [5]; 1.41 µM in assay [6]. Further, the TGI stood at 7.9 µM in [7], 1.14 µM in [8], 1.36 µM in [9] and 1.25 µM in [10].
Turning to `CO[C@H]1C=C[C@@]23c4cc5c(cc4CO[C@]2(O)CN(C)[C@H]3C1)OCO5`, the TGI in [1], in [2], in assay [4], in assay [5], in assay [6] and in [7] was greater than 100 µM throughout. The TGI in [8], in [9] and in assay [10] was greater than 100 µM throughout.
Regarding `Nc1ncn(C2CC(O)C(CO)O2)c(=O)n1` (configuration not stated), the TGI was greater than 375 µM in assay [1]; greater than 261 µM in assay [2]; greater than 319 µM in [3]; greater than 332 µM in assay [4]; 162 µM in assay [5]; 158 µM in assay [6]. Besides, the TGI in [7] was 182 µM; in assay [8], 373 µM; in [9], greater than 375 µM; in assay [10], 265 µM.
Turning to `O=C(Nc1ccc(Cl)cc1Cl)C(=O)C(C(=O)c1ccncc1)C1OC(=O)c2ccccc21` (configuration not stated), the TGI in [1], in assay [2], in assay [3], in assay [4], in [5] and in assay [6] was greater than 100 µM each time. In addition, the TGI in assay [7], in assay [8], in [9] and in [10] was greater than 100 µM throughout.
Take `COc1ccc(CNc2nc3cc(C(F)(F)F)ccc3nc2C)cc1OC`: the TGI is greater than 100 µM in assay [1]; greater than 100 µM in assay [2]; 69.9 µM in [3]; greater than 100 µM in assay [4]; greater than 100 µM in assay [5]; greater than 100 µM in assay [6]. Also, the TGI in assay [7] was greater than 100 µM; in [8] it was greater than 100 µM; in assay [9], 87.8 µM; in [10], greater than 100 µM.
On to `CC(C)c1cc2c(O)c(c1)Cc1cc(C(C)C)cc(c1O)Cc1cc(C(C)C)cc(c1O)Cc1cc(C(C)C)cc(c1O)C2`, for which the TGI in assay [1], in [2], in assay [3], in [4], in assay [5] and in assay [6] was greater than 100 µM each time. In addition, the TGI in assay [7], in [8], in [9] and in assay [10] was greater than 100 µM in each case.
For `COC(=O)C(NC(=O)c1ccccc1)c1ccco1` (configuration not stated), the TGI in [1], in assay [2], in [3], in assay [4], in assay [5] and in [6] was greater than 100 µM throughout. Further, the TGI in assay [7], in assay [8], in assay [9] and in assay [10] was greater than 100 µM each time.
`COC(=O)C(=O)C(C(=O)C=C(C)C)C(=O)C(=O)Nc1ccc(C)cc1C` (configuration not stated): the TGI in assay [1], in assay [2], in [3], in assay [4], in assay [5] and in assay [6] was greater than 100 µM throughout. In addition, the TGI in assay [7], in [8], in assay [9] and in assay [10] was greater than 100 µM each time.
`COc1cccc(N2C(=O)[C@H]3CC(C)c4c([nH]c5ccccc45)[C@H]3C2=O)c1` (some centres not stated): the TGI is greater than 100 µM in assay [1]; greater than 100 µM in [2]; 42.5 µM in [3]; greater than 100 µM in assay [4]; greater than 100 µM in assay [5]; 93.1 µM in [6]. Moreover, the figures for the TGI in assay [7], in assay [9] and in [10] were 72.2 µM, greater than 100 µM and greater than 100 µM, respectively.
As to `CC[CH2][Sn]([Cl])([Cl])[CH2]CC.Oc1ccccc1C=NCCN=Cc1ccccc1O`, the GI50 was 19.2 µM in assay [1]; 2.16 µM in assay [2]; 12.3 µM in [3]; 2.53 µM in assay [4]; 9.29 µM in assay [5]; 10.5 µM in assay [6]. Also, the GI50 in [7] was 17.2 µM; in [8], 1.8 µM; in assay [10], 5.77 µM. Further, the TGI in assay [1] is 41 µM; in [2], 41.8 µM; in [3], 25.4 µM; in assay [4] it was greater than 100 µM; in assay [5], 21.4 µM; in [6], 24.2 µM. Besides, the TGI in assay [7] was found to be 35.1 µM; in [8] it was 3.82 µM; in assay [10] it was 19.6 µM.
As for `Cc1ccc(NC(=O)NCCCOc2ccc(N3C(N)=NC(N)=NC3(C)C)cc2Cl)cc1S(=O)(=O)F`, the GI50 was 2.83 µM in [1]; 9.69 µM in assay [2]; 9.46 µM in assay [3]; 0.677 µM in assay [4]; 8.6 µM in assay [5]; 8.84 µM in assay [6]. The GI50 was 43.6 µM in assay [7], 2.03 µM in assay [8] and 4.05 µM in assay [10]. The TGI in assay [1] was greater than 100 µM; in assay [2], greater than 100 µM; in assay [3] it was greater than 100 µM; in assay [4] it was greater than 100 µM; in assay [5], greater than 100 µM; in [6] it was 81.2 µM. Further, the TGI in assay [7], in assay [8] and in assay [10] was greater than 100 µM throughout.
`C/C(=C1/CCC/C(=C(/C)c2ccccc2)C1=O)c1ccccc1`: the TGI in assay [1] is greater than 100 µM; in [2] it was 49.8 µM; in [4], 47.1 µM; in [5] it was greater than 100 µM; in assay [6], greater than 100 µM; in assay [7] it was greater than 100 µM. For the same compound, the TGI in assay [8], in assay [9] and in assay [10] was greater than 100 µM throughout.
As for `Fc1ccc(C2SCc3nc4ccccc4n32)cc1Cl` (configuration not stated), the TGI in assay [1] is greater than 100 µM; in assay [2] it was 87.4 µM; in assay [3] it was 55.9 µM; in [4], 55.9 µM; in [6] it was 43.8 µM; in assay [7] it was 49.5 µM. In addition, the TGI in assay [8] is greater than 100 µM; in [9] it was 67.1 µM; in assay [10], 25.6 µM.
Consider `c1cc[c]([Pb]([c]2ccccc2)[c]2ccccc2)cc1`, for which the GI50 in assay [1] is 60 µM; in assay [2] it was 10.1 µM; in assay [3] it was 36.9 µM; in [4] it was 11 µM; in assay [5], 10.4 µM; in assay [6], 14.2 µM. Further, the GI50 in assay [7] is 11.2 µM; in assay [8], 21.2 µM; in assay [10], 6.1 µM. In addition, the TGI in [1] is greater than 100 µM; in [2] it was greater than 100 µM; in assay [3], 79.3 µM; in assay [4], 61.4 µM; in assay [5], 23.8 µM; in assay [6], 43.2 µM. The figures for the TGI in [7], in [8] and in assay [10] were 38.2 µM, 57.1 µM and 19.8 µM, respectively.
As to `COc1cc2c(c(OC)c1OC)C(=O)[C@@H]1c3ccc([N+](=O)[O-])cc3C(=O)N(CCCBr)[C@H]21`, the GI50 is 12.3 µM in [1]; 13.9 µM in assay [3]; 30.6 µM in assay [4]; 2.02 µM in [5]; 11.8 µM in [6]; 22.3 µM in assay [7]. In addition, the GI50 is 20 µM in [8], 8.04 µM in assay [9] and greater than 100 µM in assay [10]. In addition, the TGI is 45.5 µM in assay [1]; 41.4 µM in [3]; greater than 100 µM in assay [4]; 12.4 µM in [5]; 38.7 µM in assay [6]; 74.5 µM in assay [7]. Moreover, the TGI in assay [8] is greater than 100 µM; in assay [9] it was 34.9 µM; in assay [10] it was greater than 100 µM.
